Assay results reported in paper PMC4237480, “Cytochrome P450 induction properties of food and herbal-derived compounds using a novel multiplex RT-qPCR in vitro assay, a drug–food interaction prediction tool” (Food Science & Nutrition, 2014).

Key:
[1] = tested on: CYP2D6; test: western blot analysis, CYP2D6 protein expression in HepG2 cells; assay type: in vitro ADME, human; details: for effect on CYP2D6 protein expression: HepG2 cells, 48 h, western blot densitometry normalized to β-actin, vs DMSO control
[2] = tested on: CYP2D6; set-up: method as in Chow et al. [2010]; details: healthy subjects; ref Chow et al. [2010]; cited from earlier work
[3] = tested on: CYP2C9; set-up: method as in Chow et al. [2010]; details: healthy subjects; ref Chow et al. [2010]; cited from earlier work
[4] = tested on: CYP1A2; test: multiplex RT-qPCR, CYP1A2 mRNA expression in HepG2 cells; details: for concentration with statistically significant CYP1A2 mRNA induction: P < 0.05 vs control; for concentration from which CYP1A2 mRNA induction was detected/observed: not necessarily statistically significant
[5] = tested on: CYP3A4; set-up: method as in Chow et al. [2010]; details: healthy subjects; ref Chow et al. [2010]; cited from earlier work
[6] = tested on: CYP1A2; set-up: method as in Chow et al. [2010]; details: healthy subjects, ref Chow et al. [2010], cited from earlier work
[7] = tested on: CYP1A2; test: western blot analysis, CYP1A2 protein expression in HepG2 cells; assay type: in vitro ADME, human; details: for effect on CYP1A2 protein expression: HepG2 cells, 48 h, western blot densitometry normalized to β-actin, vs DMSO control
Experimental: All compounds were diluted with concentrated DMSO.

[8] = tested on: CYP3A4; test: multiplex RT-qPCR, CYP3A4 mRNA expression in HepG2 cells
[9] = tested on: CYP3A4; test: western blot analysis, CYP3A4 protein expression in HepG2 cells; details: for effect on CYP3A4 protein expression: HepG2 cells, 48 h, western blot densitometry normalized to β-actin, vs DMSO control
[10] = tested on: CYP3A4; set-up: method as in Graber-Maier et al. [2010]; details: intestinal cells; ref Graber-Maier et al. [2010]; cited from earlier work
[11] = tested on: CYP1A2; set-up: method as in Wen et al. [2002]; details: 48 h exposure, cultured human hepatocytes; ref Wen et al. [2002]; cited from earlier work
[12] = tested on: CYP2D6; test: multiplex RT-qPCR, CYP2D6 mRNA expression in HepG2 cells; details: concomitant furafylline and omeprazole, control treated with omeprazole
[13] = tested on: 2C9; set-up: method as in Pekthong et al. [2009]; details: human hepatocytes; ref Pekthong et al. [2009]; cited from earlier work
[14] = tested on: 3A4; set-up: method as in Pekthong et al. [2009]; details: human hepatocytes; ref Pekthong et al. [2009]; cited from earlier work
[15] = tested on: CYP1A2; set-up: method as in Pekthong et al. ([2008]); details: human microsomes; ref Pekthong et al. ([2008]); cited from earlier work
[16] = tested on: CYP3A4; set-up: method as in Pekthong et al. ([2008]); details: human microsomes; ref Pekthong et al. ([2008]); cited from earlier work
[17] = tested on: CYP2C9; set-up: method as in Pekthong et al. ([2008]); details: human microsomes; ref Pekthong et al. ([2008]); cited from earlier work
[18] = tested on: CYP1A2; set-up: method as in Pekthong et al. [2009]; details: human hepatocytes; ref Pekthong et al. [2009]; cited from earlier work
[19] = tested on: PXR-responsive genes like CYP3A4; set-up: method as in Ruhl et al. [2004]; details: HepG2 cells; ref Ruhl et al. [2004]; cited from earlier work
[20] = tested on: cytochrome P450 (CYP) 3A4; set-up: method as in Sunaga et al. [2012]; details: ref Sunaga et al. [2012]; cited from earlier work
[21] = HepG2, concomitant furafylline and omeprazole, control treated with omeprazole

In the case of `Oc1ccc(/C=C/c2cc(O)cc(O)c2)cc1` [resveratrol], the “CYP2D6 protein induction, average” value ([1]; 0.1 μmol/L, HepG2, 48 h) is given as “more than twofold changes”, the “effect on CYP2D6 protein expression” value [1] is given as “statistically significant CYP2D6 protein induction” and the “phenotypic index of CYP2D6” value [2] is given as “inhibit”. For the same molecule, the “phenotypic index of CYP2C9” value [3] was “inhibit”, the “concentration with statistically significant CYP1A2 mRNA induction” value ([4]; HepG2, 48 h) was 50 µmol/L and the “concentration from which CYP1A2 mRNA induction was detected/observed” value ([4]; HepG2, 48 h) was no less than 0.1 µmol/L. For the same molecule, the “phenotypic index of CYP3A4” value [5] was “inhibit”, the “decrease in the caffeine/paraxanthine metabolic ratio” value ([6]; 4 weeks of 1 g daily) was 16% and the “phenotypic index of CYP1A2” value [6] was “induces”. The “effect on CYP1A2 protein expression” value [7] was “insignificant”.
With `COc1ccc2[nH]c([S+]([O-])Cc3ncc(C)c(OC)c3C)nc2c1` (centres unmarked) [omeprazole] the “effect on CYP2D6 protein expression” value [1] was “no effects”, the “CYP1A2 mRNA up-regulation” value ([4]; 10 μmol/L, HepG2, 48 h, Ct 33 assumed for untreated control) was 24 fold changes and the “concentration with statistically significant CYP1A2 mRNA induction” value ([4]; HepG2, 48 h) was no less than 10 µmol/L. The “concentration from which CYP1A2 mRNA induction was detected/observed” value ([4]; HepG2, 48 h) was no less than 1 µmol/L, the “effect on CYP1A2 protein expression” value [7] was “statistically insignificant” and the “CYP3A4 mRNA induction” value ([8]; 0.1 μmol/L, HepG2, 48 h) was less than 1.5 fold change. The “concentration with significant CYP3A4 mRNA induction” value ([8]; HepG2, 48 h, P < 0.05 vs control) was 0.1 µmol/L.
In the case of `COc1cc(/C=C/C(=O)CC(=O)/C=C/c2ccc(O)c(OC)c2)ccc1O` [curcumin], the “effect on CYP3A4 protein expression” value [9] is listed as “significant induction”, the “effect on CYP2D6 protein expression” value [1] is listed as “does not affect significantly” and the “mRNA expression of CYP3A4” value [10] is listed as “did not affect”.
For `CC(C)=CCC/C(C)=C/COc1c2ccoc2cc2oc(=O)ccc12` [bergamottin], the “effect on CYP3A4 protein expression” value [9] is given as “did not affect”, the “effect on CYP2D6 protein expression” value [1] is given as “did not affect” and the “levels of CYP1A2 protein and mRNA” value [11] is given as “increased levels”. The “CYP1A2 mRNA induction” value ([4]; 1 μmol/L, HepG2, 48 h, Ct 33 assumed for untreated control) was roughly 11 fold increase, the “concentration from which CYP1A2 mRNA induction was detected/observed” value ([4]; HepG2, 48 h) was no less than 1 µmol/L and the “effect on CYP1A2 protein expression” value [7] was “only a slight induction”.
In the case of `Cc1nc2c([nH]1)c(=O)n(C)c(=O)n2Cc1ccco1` [furafylline], the “CYP3A4 protein expression, furafylline with omeprazole” value [9, 21] is reported as “no significant changes”, the “CYP2D6 mRNA expression, furafylline with omeprazole” value [12] is reported as “no significant changes” and the “CYP2D6 protein expression, furafylline with omeprazole” value [1, 21] is reported as “no significant changes”. The “CYP1A2 mRNA expression in omeprazole-induced cells” value ([4]; HepG2, furafylline 2 h before omeprazole, concomitant treatment, compared with omeprazole-treated cells (control)) was “significantly reduced”, the “CYP1A2 protein expression in omeprazole-induced cells” value [7, 21] was “reduction was statistically insignificant” and the “CYP3A4 mRNA expression, furafylline with omeprazole” value [8, 21] was “no significant changes”.
With `C=C1CC[C@@H]2[C@](C)(CO)[C@H](O)CC[C@@]2(C)[C@@H]1C/C=C1/C(=O)OC[C@H]1O` [andrographolide] the “effect on CYP3A4 protein expression” value [9] was “did not affect”, the “effect on CYP2D6 protein expression” value [1] was “up-regulated” and the “mean up-regulation of the CYP2D6 protein” value ([1]; all concentrations tested, HepG2, 48 h) was “less than twofold changes”. For the same molecule, the “mRNA expression of CYP2C9” value [13] was “decrease”, the “mRNA expression of CYP3A4” value [14] was “decrease” and the IC50 [15] was greater than 100000 nM. The IC50 [16] was […], the IC50 [17] was greater than 100000 nM and the “mRNA expression of CYP1A2” value [18] was “decrease”.
In the case of `CC(C)=CCC/C(C)=C/C=C/C(C)=C/C=C/C(C)=C/C=C/C=C(C)/C=C/C=C(C)/C=C/C=C(\C)CCC=C(C)C` [lycopene], the “effect on CYP3A4 protein expression” value [9] is listed as “did not appear to have any effects”, the “effect on CYP2D6 protein expression” value [1] is listed as “did not appear to have any effects” and the “activation potential on PXR-responsive genes like CYP3A4” value [19] is listed as “no activation potential”. The “inhibition of CYP3A4-mediated drug metabolism” value [20] was “does not inhibit”.
In the case of `O=c1cc(-c2ccccc2)oc2ccc3ccccc3c12` [β-naphthoflavone], the “effect on CYP3A4 protein expression” value [9] is reported as “remained either unchanged or there were slight changes that were statistically insignificant”, the “effect on CYP2D6 protein expression” value [1] is reported as “remained either unchanged or there were slight changes that were statistically insignificant” and the “CYP1A2 mRNA up-regulation” value ([4]; 5 μmol/L, HepG2, 48 h, estimated, Ct 33 assumed for untreated control) is reported as “more than sixfold change”. For the same molecule, the “CYP1A2 mRNA up-regulation” value ([4]; 50 μmol/L, HepG2, 48 h, estimated, Ct 33 assumed for untreated control) was 26 fold change, the “concentration from which CYP1A2 mRNA induction was detected/observed” value ([4]; HepG2, 48 h) was no less than 5 µmol/L and the IC50 [15] was 85 nM. For the same molecule, the “concentration with significantly higher CYP1A2 protein (mean relative intensity)” value ([7]; HepG2, 48 h, western blot) was no less than 5 µmol/L and the “effect on CYP1A2 protein expression” value [7] was “significantly higher”.
For `CC(=O)N1CCN(c2ccc(OCC3COC(Cn4ccnc4)(c4ccc(Cl)cc4Cl)O3)cc2)CC1` (centres unmarked) [ketoconazole, reference compound], the “effect on CYP3A4 protein expression” value [9] is listed as “differences were not proved to be significant” and the IC50 [16] is listed as […].
